According to US4024280A, “Abietanilides, their production and use” (Nippon Shinyaku Co., Ltd., priority 1974, dated 1977):

Test system: cholesterol concentration in the blood
Test: Blood cholesterol reduction in rats fed a cholesterol/sodium cholate diet
Assay type: in vivo
Settings: male rats, diet with 1% cholesterol and 0.25% sodium cholate for 3 days, control group = 0, normal group = 100
Experimental: A completely synthetic diet containing 1% of cholesterol, 0.25% of sodium cholate and 0.003%, 0.01%, 0.03% and 0.1% of the test compound is given to a group of 6 male rats having a body weight of about 50 g consecutively for 3 days, and the rats are fasted overnight. Then, the rats are decapitated and their blood collected to determine the cholesterol concentration in the blood. The concentration of cholesterol in the blood is measured with Technicon Autoanalyzer (Technicon Laboratory: Method File N-24a).
Each value shown in the Table is a relative value determined based on the supposition that the value of the control group (the cholesterol-administered group) is 0 and the value of the normal group (the non-cholesterol-administered group) is 100.

In the case of `CC(C)C1CCC2=C(CCC3C(C)(C(=O)Nc4ccccc4)CCCC23C)C1` (stereo not shown) [Δ^8 -Dihydroabietanilide], the “% Inhibition” value (dose in diet 0.003%) is reported as 18%, the “% Inhibition” value (dose in diet 0.01%) is reported as 22% and the “% Inhibition” value (dose in diet 0.03%, * significant at 1% level) is reported as 56%. The “% Inhibition” value (dose in diet 0.1%, * significant at 1% level) was 93%.
